{
  "source": "patent US20220411846A1",
  "about": "“METHOD FOR PREDICTING THE VIRULENCE AND PATHOGENICITY OF GRAM-NEGATIVE BACTERIAL STRAINS” (priority 2019, published 2022)",
  "test_system": "strains of E. cloacae complex",
  "assay": "E. cloacae complex polymyxin B survival assay",
  "assay_type": "cell-based, Enterobacter cloacae complex",
  "conditions": "5 strains expressing 2-hydroxymyristate vs 5 strains not expressing it; 1, 3 and 10 μg/ml; 4 hours",
  "method": "Strains of the Enterobacter complex were selected.\nThe Enterobacter strains preserved in a tube frozen with 30% glycerol are transplanted in a planktonic culture in 20 ml of an LB culture medium. After incubation at 37° C. overnight, 1 ml of the culture diluted to 10^7 is brought into contact with increasing concentrations of polymyxin B (1 μg/ml, 3 μg/ml and 10 μg/ml). A tube without antibiotic is added as a control.\nAll the tubes are incubated at 37° C. with shaking for an additional 4 hours. The cultures are then diluted and spread on LB agar Petri dishes.\nThe dishes are incubated at 37° C. overnight and the colonies are counted.\nPercentage survival is computed as follows:\n(CFU polymyxin B/CFU control)×100\n5 strains of E. cloacae complex expressing 2-hydroxymyristate (2HM) and 5 strains of E. cloacae complex not expressing 2-hydroxymyristate (2HM) were exposed to different concentrations of polymyxin B for 4 hours.",
  "data": [
    {"substance": "polymyxin B [polymixin B]", "values": [
      {"measurement": "Survival of strains after exposure to polymyxin B (FIG. 6)", "result": "presence of 2-OH myristate on Lipid A generates resistance"}
    ]}
  ]
}
